The subject of one series is H292 clone 15 cells. The following applies: 48 hours compound, Alamar Blue 2 hours; Average of 3 experiments. A general note: Alamar Blue is a resazurin reagent that responds to reducing activity.
For series [1], the system named is MUC5AC production by H292 clone 15 cells overexpressing hCLCA1. Description: ELLA of MUC5AC in conditioned media of H292 clone 15 cells. The class given is cell-based, human. The following applies: 48 hours, Average of 3 experiments.
Description: Conditioned media were collected and MUC5AC (the major secretory mucin in lungs) content was determined by ELLA measurement as described below. 96 well microtiter plates were coated with a mouse monoclonal antibody against human MUC5AC (1-13M1, NeoMarkers), then incubated with test conditioned media. Bound MUC5AC was detected by horseradish peroxidase-conjugated soybean lectin which has a high affinity towards highly-glycosylated proteins such as MUC5AC. Conversion of peroxidase substrate TMB (Tetramethylbenzidine Base) was quantified by reading at 450 nm. O.D. (optical density) readings were plotted against concentrations of compounds.
The next series relates to Muc5b. In words: Inhibition of Muc5b expression. Format: cell-based. Also on record: key: + = inhibition; − = no inhibition. The following applies: Table 2. The protocol: The effects of talniflumate derivatives on mucin production were also assayed for changes in ELLA and IC50 (Table 2) as described in the methods above.
In series [2] the test system is MUC5A/C secretion in hCLCA1 expressing H292 cells. In words: MUC5A/C secretion in hCLCA1 expressing H292 cells (ELLA). The class given is cell-based, human. Also on record: key to ELLA: + = inhibition; − = no inhibition.

The structures appear in SMILES notation.

In general, IC50 refers to the concentration that gives 50% inhibition. With `O=C1OC(CC(=O)c2cccnc2Nc2cccc(C(F)(F)F)c2)c2ccccc21` (centres unmarked) [MSI 2216], in the series with H292 clone 15 cells, the “Est. LD50 (μM)(alamar Blue)*” value amounted to 32 µM. The IC50 in series [1] came out at 3 µM; in series [2] (Table 2, ELLA), 5 µM. The “Inhibition of Muc5b Expression” value in the series on Muc5b is “+”. Besides, the ELLA result in series [2] (Table 2, mucin production) was “+”.

Values taken from US7345051B2, “Mucin synthesis inhibitors” (Genaera Corporation, priority 2000, dated 2008).
